Format in all cases: cell-based
Common to all, as to conditions: Homo sapiens, 5 hours at 37° C., 1% DMSO

The test system of one experiment is Aβ-40. Put plainly: Aβ-40 level in conditioned media of 2B7 cells, MSD 3-PLEX ELISA. Here is the method:
(§1) Assays were conducted to determine the ability of a Compound of Formula I to modulate […], […], and Aβ-38. μELISA Plates: Human (6E10) Ab 3-PLEX ELISA kits were purchased from Meso Scale Discovery Labs, 9328 Gaither Road, Gaithersburg, Md. 20877 (Catalog Number […]-3). Plates with capture antibodies were blocked for 1-2 hours at room temperature with 150 μL of the manufactures blocking reagent. Conditioned Media: Cultured 2B7 cells in 96 well plate with 250 μL of media per well until confluent; Prepared serial dilutions of compounds in DMSO at 100× the final desired concentration; Washed wells with 2B7 cells 1× with 250 μL of media; Diluted DMSO stocks 1:100 into media: • Added 250 μL of media containing compounds (1% DMSO) to wells with 2B7 cells for 5 hours at 37° C. ELISA Sample Prep: Diluted conditioned media: 1 part media with 1% DMSO and 1 part blocking buffer; 150 μL of the 250 μL of conditioned media were used. Standard Curve Sample Prep: Prepared per manufacturer's protocol (see above). […] Final Wash and Readout: Washed wells 5× with MSD wash buffer; Added 150 μL 2×MSD read buffer; Read with MSD imager. […] Data Analysis: Aβ peptide levels for each peptide were calculated from the standard curve using the MSD software provided with the MSD 2400 Imager. Percent vehicle values for each compound dosage were then calculated and fit to a 4 parameter curve generating IC50 values.
A general note: In an ELISA, binding on a coated surface is turned into a signal by an enzyme label.

For the next experiment, the system named is Aβ-38. Put plainly: Aβ-38 level in conditioned media of 2B7 cells, MSD 3-PLEX ELISA. Here is the method:
as §1

The next experiment relates to Aβ-42. Kind of experiment: Aβ-42 level in conditioned media of 2B7 cells, MSD 3-PLEX ELISA. Here is the method: as §1

Drawing on patent US20130060023A1, “Compounds useful for treating neurodegenerative disorders” (Satori Pharmaceuticals, Inc., priority 2011, published 2013), this text covers IC50 for one compound.

Read-outs that look alike come from different tables or passages of the source. Some results are limits rather than exact numbers.

Turning to `CC(C)[C@@H](OC(=O)N1CCC1)[C@H]1C[C@@H](C)[C@H]2[C@H](O1)[C@H](O)[C@@]1(C)[C@@H]3CC[C@H]4C(C)(C)[C@@H](O[C@H]5CN([C@@H]6CCNC6=O)CCO5)CC[C@@]45C[C@@]35CC[C@]21C` [Compound I-1], the IC50 (as a rule, the concentration needed to halve the response being measured) was above 5000 nM in the experiment on Aβ-40 (inflection of 4 parameter curve, read-out: Aβ 40 DR IC50 Inflection); above 5000 nM in the experiment with Aβ-40 (read-out: Aβ 40 IC50); above 5000 nM in the experiment on Aβ-38 (inflection of 4 parameter curve, read-out: Aβ 38 DR IC50 Inflection); 501 to 1000 nM in the experiment on Aβ-38 (read-out: Aβ 38 IC50); above 5000 nM in the experiment with Aβ-42 (inflection of 4 parameter curve, read-out: Aβ 42 DR IC50 Inflection); 100 to 500 nM in the experiment on Aβ-42 (read-out: Aβ 42 IC50).
